Source: US8247211B2, “Glycopeptide antibiotics” (American Cyanamid Company, priority 2001, dated 2012)
≈ marks a conversion by molar mass, not a printed value.

Assays:
Assay in all cases: In vitro antibacterial evaluation: minimum inhibitory concentration (MIC), broth dilution method
Format in all cases: cell-based
Enterococcus sp. = conditions: 18 hours at 35° C.
Procedure, shortened: (§1)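 Following NCCLS approved standard M7-A2, compounds are serially diluted from 64 to 0.06 μg/mL in Muller-Hinton II […] and inoculated at 5×10^5 CFU/mL; the MIC is the minimum concentration at which growth is inhibited.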

Escherichia coli = conditions: 18 hours at 35° C.
Procedure, shortened: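 Using Muller-Hinton II […] and an inoculum of 5×10^5 CFU/mL, antibiotic dilutions from 64 down to 0.06 μg/mL were tested following NCCLS M7-A2. The MIC is the lowest concentration inhibiting growth, including in methicillin-, penicillin- or vancomycin-resistant clinical isolates.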

Staphylococcus sp. = conditions: for MIC Staphylococcus aureus (ATCC 29213): strain ATCC 29213; for MIC Staphylococcus aureus (GC 1131): strain GC 1131; for MIC Staphylococcus aureus (GC 3051): strain GC 3051; for MIC Staphylococcus aureus (GC 3053): strain GC 3053; for MIC Staphylococcus aureus (GC 4541): strain GC 4541; for MIC Staphylococcus aureus (GC 4542): strain GC 4542; for MIC Staphylococcus aureus-SMITH (GC 4543): strain GC 4543; for MIC Staphylococcus aureus (GC 4544): strain GC 4544; for MIC Staphylococcus aureus (GC 4545): strain GC 4545; for MIC Staphylococcus haemolyticus (GC 4546): strain GC 4546; for MIC Coagulase Negative Staphylococcus (GC 4547): strain GC 4547; for MIC Coagulase Negative Staphylococcus (GC 4548): strain GC 4548; for MIC Coagulase Negative Staphylococcus (GC 4549): strain GC 4549; for MIC Coagulase Negative Staphylococcus (GC 4551): strain GC 4551
Procedure, shortened: as §1

Streptococcus sp. = conditions: 18 hours at 35° C.
Procedure, shortened: as §1

[1] = Enterococcus faecalis (ATCC 29212)
[2] = Enterococcus faecalis (GC 2242)
[3] = Enterococcus faecalis (GC 2691)
[4] = Enterococcus faecalis (GC 3059)
[5] = Enterococcus faecalis (GC 4552)
[6] = Enterococcus faecalis (GC 4553)
[7] = Enterococcus faecalis (GC 4554)
[8] = Enterococcus faecalis (GC 6189)
[9] = broth dilution, inoculum 5×10^5 CFU/mL
[10] = Streptococcus agalactiae (GC 4564)
[11] = Streptococcus pneumoniae (ATCC 6301)
[12] = Streptococcus pneumoniae (GC 1894)
[13] = Streptococcus pneumoniae (GC 4565)
[14] = Streptococcus pyogenes (GC 4563)

SMILES: N=C1NCC(C(O)C2NC(=O)C(CC3CCC(OC4OC(CO)C(OC5OC6COC7(OC6C(O)C5O)C5CC6CC(C5)CC7C6)C(O)C4O)CC3)NC(=O)C(CC3CCCCC3)NC(=O)CNC(=O)C(CO)NC(=O)C(C(O)C3CNC(=N)N3C3OC(CO)C(O)C(O)C3O)NC2=O)N1 (stereo not drawn) [Example 222]
- MIC Enterococcus avium (GC 4558) (Enterococcus sp.; Enterococcus avium (GC 4558)): 64 µg/mL (≈ 44.9 µM)
- MIC Enterococcus faecalis (ATCC 29212) (Enterococcus sp.; [1]): >64 µg/mL
- MIC Enterococcus faecalis (GC 2242) (Enterococcus sp.; [2]): >64 µg/mL
- MIC Enterococcus faecalis (GC 2691) (Enterococcus sp.; [3]): >64 µg/mL
- MIC Enterococcus faecalis (GC 3059) (Enterococcus sp.; [4]): >64 µg/mL
- MIC Enterococcus faecalis (GC 4552) (Enterococcus sp.; [5]): >64 µg/mL
- MIC Enterococcus faecalis (GC 4553) (Enterococcus sp.; [6]): >64 µg/mL
- MIC Enterococcus faecalis (GC 4554) (Enterococcus sp.; [7]): >64 µg/mL
- MIC Enterococcus faecalis (GC 6189) (Enterococcus sp.; [8]): >64 µg/mL
- MIC Enterococcus faecium (GC 2243) (Enterococcus sp.; Enterococcus faecium (GC 2243)): >64 µg/mL
- MIC Enterococcus faecium (GC 4556) (Enterococcus sp.; Enterococcus faecium (GC 4556)): >64 µg/mL
- MIC Enterococcus faecium (GC 4557) (Enterococcus sp.; Enterococcus faecium (GC 4557)): 64 µg/mL (≈ 44.9 µM)
- MIC Enterococcus avium (GC 4558) (Enterococcus sp.; [9]): 64 µg/mL (≈ 44.9 µM)
- MIC Enterococcus faecalis (ATCC 29212) (Enterococcus sp.; [9]): >64 µg/mL
- MIC Enterococcus faecalis (GC 2242) (Enterococcus sp.; [9]): >64 µg/mL
- MIC Enterococcus faecalis (GC 2691) (Enterococcus sp.; [9]): >64 µg/mL
- MIC Enterococcus faecalis (GC 3059) (Enterococcus sp.; [9]): >64 µg/mL
- MIC Enterococcus faecalis (GC 4552) (Enterococcus sp.; [9]): >64 µg/mL
- MIC Enterococcus faecalis (GC 4553) (Enterococcus sp.; [9]): >64 µg/mL
- MIC Enterococcus faecalis (GC 4554) (Enterococcus sp.; [9]): >64 µg/mL
- MIC Enterococcus faecalis (GC 6189) (Enterococcus sp.; [9]): >64 µg/mL
- MIC Enterococcus faecium (GC 2243) (Enterococcus sp.; [9]): >64 µg/mL
- MIC Enterococcus faecium (GC 4556) (Enterococcus sp.; [9]): >64 µg/mL
- MIC Enterococcus faecium (GC 4557) (Enterococcus sp.; [9]): 64 µg/mL (≈ 44.9 µM)
- MIC Escherichia coli (ATCC 25922) (Escherichia coli): >64 µg/mL
- MIC Escherichia coli (GC 4559) (Escherichia coli): >64 µg/mL
- MIC Escherichia coli (GC 4560) (Escherichia coli): 64 µg/mL (≈ 44.9 µM)
- MIC Staphylococcus aureus (ATCC 29213) (Staphylococcus sp.): >64 µg/mL
- MIC Staphylococcus aureus (GC 1131) (Staphylococcus sp.): >64 µg/mL
- MIC Staphylococcus aureus (GC 3051) (Staphylococcus sp.): >64 µg/mL
- MIC Staphylococcus aureus (GC 3053) (Staphylococcus sp.): >64 µg/mL
- MIC Staphylococcus aureus (GC 4541) (Staphylococcus sp.): >64 µg/mL
- MIC Staphylococcus aureus (GC 4542) (Staphylococcus sp.): >64 µg/mL
- MIC Staphylococcus aureus-SMITH (GC 4543) (Staphylococcus sp.): >64 µg/mL
- MIC Staphylococcus aureus (GC 4544) (Staphylococcus sp.): >64 µg/mL
- MIC Staphylococcus aureus (GC 4545) (Staphylococcus sp.): >64 µg/mL
- MIC Staphylococcus haemolyticus (GC 4546) (Staphylococcus sp.): >64 µg/mL
- MIC Coagulase Negative Staphylococcus (GC 4547) (Staphylococcus sp.): >64 µg/mL
- MIC Coagulase Negative Staphylococcus (GC 4548) (Staphylococcus sp.): >64 µg/mL
- MIC Coagulase Negative Staphylococcus (GC 4549) (Staphylococcus sp.): >64 µg/mL
- MIC Coagulase Negative Staphylococcus (GC 4551) (Staphylococcus sp.): >64 µg/mL
- MIC Streptococcus agalactiae (GC 4564) (Streptococcus sp.; [10]): >64 µg/mL
- MIC Streptococcus pneumoniae (ATCC 6301) (Streptococcus sp.; [11]): 64 µg/mL (≈ 44.9 µM)
- MIC Streptococcus pneumoniae (GC 1894) (Streptococcus sp.; [12]): 32 µg/mL (≈ 22.4 µM)
- MIC Streptococcus pneumoniae (GC 4565) (Streptococcus sp.; [13]): 64 µg/mL (≈ 44.9 µM)
- MIC Streptococcus pyogenes (GC 4563) (Streptococcus sp.; [14]): 64 µg/mL (≈ 44.9 µM)
- MIC Streptococcus agalactiae (GC 4564) (Streptococcus sp.; [9]): >64 µg/mL
- MIC Streptococcus pneumoniae (ATCC 6301) (Streptococcus sp.; [9]): 64 µg/mL (≈ 44.9 µM)
- MIC Streptococcus pneumoniae (GC 1894) (Streptococcus sp.; [9]): 32 µg/mL (≈ 22.4 µM)
- MIC Streptococcus pneumoniae (GC 4565) (Streptococcus sp.; [9]): 64 µg/mL (≈ 44.9 µM)
- MIC Streptococcus pyogenes (GC 4563) (Streptococcus sp.; [9]): 64 µg/mL (≈ 44.9 µM)

SMILES: N=C1NCC(C(O)C2NC(=O)C(CC3CCC(OC4OC(CO)C(OC5OC6COC7(OC6C(O)C5O)C5CC6CC(C5)CC7C6)C(O)C4O)CC3)NC(=O)C(CC3CCCCC3)NC(=O)CNC(=O)C(CO)NC(=O)C(C(O)C3CNC(=N)N3C3OC(CO)C(O)C(O)C3O)NC2=O)N1 (stereo not drawn) [Example 223]
- MIC Enterococcus avium (GC 4558) (Enterococcus sp.; Enterococcus avium (GC 4558)): 64 µg/mL (≈ 44.9 µM)
- MIC Enterococcus faecalis (ATCC 29212) (Enterococcus sp.; [1]): >64 µg/mL
- MIC Enterococcus faecalis (GC 2242) (Enterococcus sp.; [2]): >64 µg/mL
- MIC Enterococcus faecalis (GC 2691) (Enterococcus sp.; [3]): >64 µg/mL
- MIC Enterococcus faecalis (GC 3059) (Enterococcus sp.; [4]): >64 µg/mL
- MIC Enterococcus faecalis (GC 4552) (Enterococcus sp.; [5]): >64 µg/mL
- MIC Enterococcus faecalis (GC 4553) (Enterococcus sp.; [6]): 64 µg/mL (≈ 44.9 µM)
- MIC Enterococcus faecalis (GC 4554) (Enterococcus sp.; [7]): >64 µg/mL
- MIC Enterococcus faecalis (GC 6189) (Enterococcus sp.; [8]): >64 µg/mL
- MIC Enterococcus faecium (GC 2243) (Enterococcus sp.; Enterococcus faecium (GC 2243)): >64 µg/mL
- MIC Enterococcus faecium (GC 4556) (Enterococcus sp.; Enterococcus faecium (GC 4556)): >64 µg/mL
- MIC Enterococcus faecium (GC 4557) (Enterococcus sp.; Enterococcus faecium (GC 4557)): 64 µg/mL (≈ 44.9 µM)
- MIC Enterococcus avium (GC 4558) (Enterococcus sp.; [9]): 64 µg/mL (≈ 44.9 µM)
- MIC Enterococcus faecalis (ATCC 29212) (Enterococcus sp.; [9]): >64 µg/mL
- MIC Enterococcus faecalis (GC 2242) (Enterococcus sp.; [9]): >64 µg/mL
- MIC Enterococcus faecalis (GC 2691) (Enterococcus sp.; [9]): >64 µg/mL
- MIC Enterococcus faecalis (GC 3059) (Enterococcus sp.; [9]): >64 µg/mL
- MIC Enterococcus faecalis (GC 4552) (Enterococcus sp.; [9]): >64 µg/mL
- MIC Enterococcus faecalis (GC 4553) (Enterococcus sp.; [9]): 64 µg/mL (≈ 44.9 µM)
- MIC Enterococcus faecalis (GC 4554) (Enterococcus sp.; [9]): >64 µg/mL
- MIC Enterococcus faecalis (GC 6189) (Enterococcus sp.; [9]): >64 µg/mL
- MIC Enterococcus faecium (GC 2243) (Enterococcus sp.; [9]): >64 µg/mL
- MIC Enterococcus faecium (GC 4556) (Enterococcus sp.; [9]): >64 µg/mL
- MIC Enterococcus faecium (GC 4557) (Enterococcus sp.; [9]): 64 µg/mL (≈ 44.9 µM)
- MIC Escherichia coli (ATCC 25922) (Escherichia coli): >64 µg/mL
- MIC Escherichia coli (GC 4559) (Escherichia coli): >64 µg/mL
- MIC Escherichia coli (GC 4560) (Escherichia coli): 32 µg/mL (≈ 22.4 µM)
- MIC Staphylococcus aureus (ATCC 29213) (Staphylococcus sp.): >64 µg/mL
- MIC Staphylococcus aureus (GC 1131) (Staphylococcus sp.): >64 µg/mL
- MIC Staphylococcus aureus (GC 3051) (Staphylococcus sp.): 64 µg/mL (≈ 44.9 µM)
- MIC Staphylococcus aureus (GC 3053) (Staphylococcus sp.): >64 µg/mL
- MIC Staphylococcus aureus (GC 4541) (Staphylococcus sp.): 64 µg/mL (≈ 44.9 µM)
- MIC Staphylococcus aureus (GC 4542) (Staphylococcus sp.): 64 µg/mL (≈ 44.9 µM)
- MIC Staphylococcus aureus-SMITH (GC 4543) (Staphylococcus sp.): 64 µg/mL (≈ 44.9 µM)
- MIC Staphylococcus aureus (GC 4544) (Staphylococcus sp.): 64 µg/mL (≈ 44.9 µM)
- MIC Staphylococcus aureus (GC 4545) (Staphylococcus sp.): 64 µg/mL (≈ 44.9 µM)
- MIC Staphylococcus haemolyticus (GC 4546) (Staphylococcus sp.): 64 µg/mL (≈ 44.9 µM)
- MIC Coagulase Negative Staphylococcus (GC 4547) (Staphylococcus sp.): 64 µg/mL (≈ 44.9 µM)
- MIC Coagulase Negative Staphylococcus (GC 4548) (Staphylococcus sp.): 64 µg/mL (≈ 44.9 µM)
- MIC Coagulase Negative Staphylococcus (GC 4549) (Staphylococcus sp.): 64 µg/mL (≈ 44.9 µM)
- MIC Coagulase Negative Staphylococcus (GC 4551) (Staphylococcus sp.): 64 µg/mL (≈ 44.9 µM)
- MIC Streptococcus agalactiae (GC 4564) (Streptococcus sp.; [10]): >64 µg/mL
- MIC Streptococcus pneumoniae (ATCC 6301) (Streptococcus sp.; [11]): 64 µg/mL (≈ 44.9 µM)
- MIC Streptococcus pneumoniae (GC 1894) (Streptococcus sp.; [12]): 32 µg/mL (≈ 22.4 µM)
- MIC Streptococcus pneumoniae (GC 4565) (Streptococcus sp.; [13]): >64 µg/mL
- MIC Streptococcus pyogenes (GC 4563) (Streptococcus sp.; [14]): 64 µg/mL (≈ 44.9 µM)
- MIC Streptococcus agalactiae (GC 4564) (Streptococcus sp.; [9]): >64 µg/mL
- MIC Streptococcus pneumoniae (ATCC 6301) (Streptococcus sp.; [9]): 64 µg/mL (≈ 44.9 µM)
- MIC Streptococcus pneumoniae (GC 1894) (Streptococcus sp.; [9]): 32 µg/mL (≈ 22.4 µM)
- MIC Streptococcus pneumoniae (GC 4565) (Streptococcus sp.; [9]): >64 µg/mL
- MIC Streptococcus pyogenes (GC 4563) (Streptococcus sp.; [9]): 64 µg/mL (≈ 44.9 µM)
